Measurements as given in ChEMBL document CHEMBL1201862, “PubChem BioAssay data set” (2004).
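Tested at 5 concentrations; 48 h exposure; 96-well plates; endpoints linearly interpolated, else capped at highest concentration. GI50 marks 50% less growth.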 Active and inactive are the calls of the source. Cut-off read from the data, not from the text of the source: active = GI50 up to about 1.1 µM and inactive = higher. Where a SMILES comes first, the peptide text is derived from it. The star is where a group is joined. Boc = CC(C)(C)OC(=O)*

How the values were obtained:
Experiment in all cases: NCI-60 cell line screen, 48 h
[1] = system: COLO 205
[2] = system: OVCAR-4
[3] = system: A498
[4] = system: HT-29
[5] = system: SNB-75
[6] = system: MOLT-4
[7] = system: NCI-H460
[8] = system: SW-620
[9] = system: PC-3
[10] = system: BT-549
[11] = system: SF-295
[12] = system: UACC-257
[13] = system: SNB-19
[14] = system: SF-268
[15] = system: LOX IMVI
[16] = system: OVCAR-3
[17] = system: K562
[18] = system: T47D
[19] = system: MCF7
[20] = system: Malme-3M

| SMILES | GI50 [1] | GI50 [2] | GI50 [3] | GI50 [4] | GI50 [5] | GI50 [6] | GI50 [7] | GI50 [8] | GI50 [9] | GI50 [10] | GI50 [11] | GI50 [12] | GI50 [13] | GI50 [14] | GI50 [15] | GI50 [16] | GI50 [17] | GI50 [18] | GI50 [19] | GI50 [20] |
| --- | --- | --- | --- | --- | --- | --- | --- | --- | --- | --- | --- | --- | --- | --- | --- | --- | --- | --- | --- | --- |
| Nc1nc(N)c2cc(Sc3ccc4ccccc4c3)ccc2n1 | 1.63 µM (inactive) | 4.18 µM (inactive) | 11.5 µM (inactive) | 1.79 µM (inactive) | 14.4 µM (inactive) | 2.8 µM (inactive) | 0.682 µM (active) | 0.729 µM (active) | 1.87 µM (inactive) | 3.61 µM (inactive) | 0.509 µM (active) | 1.58 µM (inactive) | 3.48 µM (inactive) | 3.11 µM (inactive) | 0.627 µM (active) | 5.89 µM (inactive) | 0.211 µM (active) | 2.12 µM (inactive) | 1.3 µM (inactive) |  |
| O=C(NNC(=S)Nc1ccccc1)c1cc(-c2ccccc2)nc2ccccc12 | 15.7 µM (inactive) | 17.3 µM (inactive) | 11.5 µM (inactive) | 28.6 µM (inactive) | 17.3 µM (inactive) | 11.4 µM (inactive) | 20.7 µM (inactive) | 18.7 µM (inactive) | 18.6 µM (inactive) | 21.6 µM (inactive) | 13.1 µM (inactive) | 19.1 µM (inactive) | 22.8 µM (inactive) | 22.9 µM (inactive) |  | 11.1 µM (inactive) | 17.4 µM (inactive) | 7.4 µM (inactive) | 21.4 µM (inactive) | 23.3 µM (inactive) |
| NC(=O)N(O)c1cccc(Br)c1 | > 100 µM (inactive) | > 100 µM (inactive) | > 100 µM (inactive) | > 100 µM (inactive) | > 100 µM (inactive) | > 100 µM (inactive) | > 100 µM (inactive) | > 100 µM (inactive) | > 100 µM (inactive) | > 100 µM (inactive) | > 100 µM (inactive) | > 100 µM (inactive) | > 100 µM (inactive) | > 100 µM (inactive) | > 100 µM (inactive) | > 100 µM (inactive) | > 100 µM (inactive) | > 100 µM (inactive) | > 100 µM (inactive) |  |
| Cc1nc(SCC(=O)Nc2ccccc2)c2sc(=S)n(-c3ccccc3)c2n1 | > 10 µM (inactive) | 5.62 µM (inactive) | > 10 µM (inactive) | > 10 µM (inactive) | 3.19 µM (inactive) | > 10 µM (inactive) | > 10 µM (inactive) | > 10 µM (inactive) | > 10 µM (inactive) | > 10 µM (inactive) | > 10 µM (inactive) | > 10 µM (inactive) | 8.41 µM (inactive) | > 10 µM (inactive) | > 10 µM (inactive) | > 10 µM (inactive) |  | > 10 µM (inactive) | > 10 µM (inactive) | > 10 µM (inactive) |
| COC(=O)C(Cc1ccccc1)NC(=O)C(CCC(=O)OCc1ccccc1)NC(=O)OC(C)(C)C (stereo not given) | > 100 µM (inactive) | 64 µM (inactive) | > 100 µM (inactive) | 35.6 µM (inactive) | > 100 µM (inactive) | > 100 µM (inactive) | 30.5 µM (inactive) | 63.8 µM (inactive) | 81.7 µM (inactive) | > 100 µM (inactive) | > 100 µM (inactive) | > 100 µM (inactive) | > 100 µM (inactive) | > 100 µM (inactive) | 30.3 µM (inactive) | 50.2 µM (inactive) | 26.9 µM (inactive) | > 100 µM (inactive) | 82.8 µM (inactive) | > 100 µM (inactive) |
| COC(c1ccc(C(C)(C)C)cc1)(c1ccc(C(C)(C)C)cc1)c1ccc(C(C)(C)C)cc1 | > 100 µM (inactive) | > 100 µM (inactive) | > 100 µM (inactive) | > 100 µM (inactive) | > 100 µM (inactive) | > 100 µM (inactive) | > 100 µM (inactive) | > 100 µM (inactive) | > 100 µM (inactive) | > 100 µM (inactive) | > 100 µM (inactive) |  | > 100 µM (inactive) | > 100 µM (inactive) | > 100 µM (inactive) | > 100 µM (inactive) | > 100 µM (inactive) | > 100 µM (inactive) | > 100 µM (inactive) | > 100 µM (inactive) |
| COc1ccc(-c2cc(-c3ccccc3)[nH]c(=S)c2C#N)cc1 | > 10 µM (inactive) | 38.6 µM (inactive) | 15.3 µM (inactive) | 36.1 µM (inactive) | 31 µM (inactive) | 17.4 µM (inactive) | 25.5 µM (inactive) | 33 µM (inactive) | 19.9 µM (inactive) | 39.6 µM (inactive) | 27.4 µM (inactive) |  | 40.4 µM (inactive) | 38.2 µM (inactive) | 20.7 µM (inactive) | 11.9 µM (inactive) | 22.8 µM (inactive) | 8.63 µM (inactive) | 30.7 µM (inactive) | 32.4 µM (inactive) |
| Cc1cccc(N2C(=O)C3c4[nH]c5ccccc5c4C4CCC(C(C)(C)C)CC4C3C2=O)c1 (stereo not given) | 11.9 µM (inactive) | 12.9 µM (inactive) | 13.1 µM (inactive) | 13.5 µM (inactive) |  | 8.83 µM (inactive) | 6.19 µM (inactive) | 11.8 µM (inactive) | 12.4 µM (inactive) | 19 µM (inactive) | 9.29 µM (inactive) | 18.7 µM (inactive) | 13.2 µM (inactive) | 4.27 µM (inactive) | 3.32 µM (inactive) | 14 µM (inactive) | 5.89 µM (inactive) | 26.5 µM (inactive) | 12 µM (inactive) | 13 µM (inactive) |
| CSc1ccc(C=C2N=C(c3ccccc3)N(c3cc(C(=O)c4ccccc4)ccc3N3C(=O)/C(=C/c4ccc(SC)cc4)N=C3c3ccccc3)C2=O)cc1 | 56.9 µM (inactive) | 40 µM (inactive) | 71.8 µM (inactive) | 81.3 µM (inactive) | 16 µM (inactive) | 23.7 µM (inactive) | 51.2 µM (inactive) | > 100 µM (inactive) | 40 µM (inactive) | 45.6 µM (inactive) | 44.1 µM (inactive) | 89.9 µM (inactive) | > 100 µM (inactive) | 53.2 µM (inactive) | 32.1 µM (inactive) | 22.2 µM (inactive) | 46 µM (inactive) | 34.5 µM (inactive) | > 100 µM (inactive) |  |
| COc1ccc(/C=C2\c3cc(OC)c(OC)cc3CCN2C(=O)c2ccccc2)cc1OC | 23.9 µM (inactive) |  | 35.4 µM (inactive) | 30.7 µM (inactive) | 32 µM (inactive) | 25.2 µM (inactive) | 28.1 µM (inactive) | 34.5 µM (inactive) | 46.5 µM (inactive) | 27.7 µM (inactive) | 61.4 µM (inactive) | 86.9 µM (inactive) | > 100 µM (inactive) | 46.3 µM (inactive) | 41.6 µM (inactive) | 35.7 µM (inactive) | 32.1 µM (inactive) | 33.3 µM (inactive) | 43.9 µM (inactive) | 22.5 µM (inactive) |
| CC(=O)OCC1OC(n2nc(Cc3ccccc3)c(=S)[nH]c2=S)C(OC(C)=O)C(OC(C)=O)C1OC(C)=O (stereo not given) | 89.7 µM (inactive) | 21.3 µM (inactive) | 32.1 µM (inactive) | 41.8 µM (inactive) | 20.6 µM (inactive) | 23.2 µM (inactive) | 69 µM (inactive) | 30 µM (inactive) | 41.1 µM (inactive) | 19.6 µM (inactive) | 43.2 µM (inactive) | 18.7 µM (inactive) | 27.7 µM (inactive) | 21.6 µM (inactive) | 20.6 µM (inactive) | 18.7 µM (inactive) | 26.9 µM (inactive) | 24.3 µM (inactive) | 27.7 µM (inactive) | 31.6 µM (inactive) |
| O=C(O)C1=CN(c2ccncc2)C(c2ccco2)=CC1c1ccccc1[N+](=O)[O-] (stereo not given) | 16.6 µM (inactive) | 13.9 µM (inactive) | 13 µM (inactive) | 2.13 µM (inactive) | 7.36 µM (inactive) | 3.03 µM (inactive) | 14.6 µM (inactive) | 10.2 µM (inactive) | 13.9 µM (inactive) | 12.1 µM (inactive) | 12.8 µM (inactive) | 2.31 µM (inactive) | 12.5 µM (inactive) | 5.71 µM (inactive) | 1.97 µM (inactive) | 7 µM (inactive) | 2.58 µM (inactive) | 10.6 µM (inactive) | 2.99 µM (inactive) | 9.53 µM (inactive) |
| CC(OCc1ccccc1)C(NC(=O)C1CSSCC(NC(=O)C(Cc2ccccc2)NC(=O)OCc2ccccc2)C(=O)NC(Cc2ccccc2)C(=O)NC(Cc2cn(C=O)c3ccccc23)C(=O)NC(CCCCNC(=O)OCc2ccccc2)C(=O)NC(C(C)OCc2ccccc2)C(=O)N1)C(N)=O (stereo not given) | 3.03 µM (inactive) | > 43.5 µM (inactive) | 27.3 µM (inactive) | 6.04 µM (inactive) | 22.1 µM (inactive) | 2.81 µM (inactive) | 22.5 µM (inactive) | 13.4 µM (inactive) | 19.1 µM (inactive) | 21.2 µM (inactive) | > 85.7 µM (inactive) | 44 µM (inactive) | 36.7 µM (inactive) | > 61.8 µM (inactive) | 20 µM (inactive) | 14 µM (inactive) | 16.4 µM (inactive) | 13.3 µM (inactive) | 8.02 µM (inactive) | 41.1 µM (inactive) |
| CC(C)(C)OC(=O)NCC(=O)NCC(=O)NCC(=O)NCC(=O)O (Boc-GGGG-OH) | > 100 µM (inactive) | > 100 µM (inactive) | > 100 µM (inactive) | > 100 µM (inactive) |  | > 100 µM (inactive) | > 100 µM (inactive) | > 100 µM (inactive) | > 100 µM (inactive) | > 100 µM (inactive) | > 100 µM (inactive) | > 100 µM (inactive) | > 100 µM (inactive) | > 100 µM (inactive) | > 100 µM (inactive) | > 100 µM (inactive) | > 100 µM (inactive) | > 100 µM (inactive) | > 100 µM (inactive) | > 100 µM (inactive) |
